In one data set the test system is Least Shrew. The data set is described as follows: CIS dose-response emesis, abdominal contractions and feeding, 47-hour observation. The format is in vivo, Cryptotis parva. To be noted: for total frequency of emesis vs vehicle control: immediate and delayed phases. The source says:
During the dark night phase a red light bulb was used to illuminate the shrew cage.
To habituate the shrews to the test environment, each animal was randomly selected and transferred to a 14×17×12 cm clean opaque plastic cage and was offered ten mealworms 1 hr prior to experimentation. […] Immediately following injection, each shrew was returned to its cage and their behaviors were videotaped for the next 47 hr. Animals were allowed ad libitum access to food (mealworms) and water. Food supply was maintained by making sure that two meal worms were always available in the cage throughout the observation time. Water was available throughout the experiment via small plastic container (1 cm in diameter and 0.5 cm in height) glued to the floor of each cage. The mean frequencies (±SEM) of vomitings (wet, dry and total) and abdominal contractions per hour and the number of mealworms eaten per hour, were scored separately from videotape recordings for each individual shrew for the entire observation period by a trained observer blind to the experimental conditions.
When a significant dose and exposure interaction was found, then simple effects at a particular emesis phase was tested via a one-way ANOVA. Neurochemical data were initially analyzed by two-way analysis of variance (ANOVA) with drug dose (0 mg/kg and 10 mg/kg) and exposure time (2 hr and 33 hr) as factors. […] For each statistical test, a P value of<0.05 was necessary to achieve statistical significance.

For a further data set, the system named is Fos. The data set can be described thus: Fos expression in the dorsal vagal complex resulting from CIS-induced vomiting. The format is in vivo, Cryptotis parva. To be noted: CIS 10 mg/kg i.p.; vs vehicle in place of CIS. The method, then:
After the appropriate time period for acute or delayed phase vomiting, shrews were anesthetized with a lethal dose of pentobarbital (100 mg/kg) and perfused transcardially via blunted needle with a peristaltic pump. The shrew was perfused with ice cold 4% paraformaldehyde and 5% picric acid in pH 7.4, 0.1 M phosphate buffer (10 min). Brains were removed and stored in 30% sucrose in 0.1 M PB overnight, then embedded in blocks of 12% gelatin in 30% sucrose/PB. The blocks were postfixed for 3 hr in 2% paraformaldehyde/PB, then rinsed and immersed in 30% sucrose/PB until they sank (usually 1-2 hr). The brain block was cut sagittally on a freezing benchtop microtome (Leica) at 30 μm into 5 series, and stored in PB with 0.03% sodium azide.
Immunolabeling was accomplished by blocking a free-floating series with 10% normal horse serum (NHS) and 3% hydrogen peroxide in PB with 0.3% Tri-ton X-100 (TX) for 30 min. After rinsing in PB, tissue was put in sheep anti-Fos polyclonal antibody (Chemicon/Millipore, Temecula, Calif.; 1:600), with 5% NHS and 0.3% TX in PB, and incubated for about 42 hr at room temperature (RT) with gentle shaking. After rinsing in PB, the tissue was placed in biotinylated donkey anti-sheep IgG secondary antibody (Jackson Immunoresearch, West Grove, Pa.; 1:600) diluted in the same diluent described for the primary antibody, and the tissue incubated at RT with shaking for 75 min Tissue was then rinsed and incubated for 60 min in HRP-conjugated avidin-biotin complex (Vector Labs, Burlingame, Calif.; Vectastain kit diluted 1:2) in PB. Tissue was then rinsed twice in PB, then once in imidazole-acetate buffer (0.1 M, pH 7.4), then reacted for 6 min in 0.0006% hydrogen peroxide with 2% nickel ammonium sulfate-enhanced diaminobenzidine (DAB, 0.05% in 0.1 M imidazole-acetate buffer). All reagents for DAB processing were purchased from Sigma-Aldrich. […]

The mark [1] stands for this setting: CIS 10 mg/kg, i.p., post exposure.

“And” between values parts separate entries of the source, which are not always exact repeats. Equal values may be shown once. A value given as a limit tells only on which side of the number the result lay.

Consider `N.N.[Cl][Pt][Cl]` [CIS, cis-platinum(II)diamine dichloride], for which the “peak immediate phase of emesis” value in the data set on Least Shrew (CIS 5 mg/kg, i.p.) is “third hour”. Moreover, the “mealworms eaten vs control” value in the data set on Least Shrew (CIS 5 mg/kg, first night) is given as “ate significantly more”; in the data set on Least Shrew (CIS 10 mg/kg, day 1) it was “ate significantly more”; in the data set with Least Shrew (CIS 10 mg/kg, day 2), “ate significantly less”; in the data set on Least Shrew (CIS 20 mg/kg, day 1) it was “ate less”; in the data set on Least Shrew (CIS 20 mg/kg, day 2), “ate significantly less”; in the data set on Least Shrew (CIS 20 mg/kg, first night), “ate significantly less”. Also, the “time of maximal mean frequency of emesis, delayed phase” value with Least Shrew (setting [1]) is 33 h. In addition, in the data set with Least Shrew (setting [1]), the “time of maximal mean frequency of emesis, immediate phase” value is 2 h and 2 to 3 h. For the same molecule, the “frequency of abdominal contractions vs vehicle” value in the data set on Least Shrew (CIS 10 mg/kg, delayed phase) is reported as “greater frequencies”; in the data set on Least Shrew (CIS 20 mg/kg, delayed phase), “greater frequencies”. Moreover, the “frequency of dry emesis vs vehicle control” value with Least Shrew (CIS 10 mg/kg, delayed phase) is recorded as “greater frequencies”. In addition, the “total frequency of emesis vs vehicle control” value with Least Shrew (CIS 10 mg/kg) and in the data set on Least Shrew (CIS 20 mg/kg) was “significantly different” throughout. The “frequency of wet emesis vs control” value was “significantly greater frequencies” with Least Shrew (CIS 10 mg/kg, immediate phase) and “significantly greater frequencies” in the data set on Least Shrew (CIS 20 mg/kg, immediate phase). In the data set with Least Shrew (CIS 20 mg/kg, i.p., post-CIS exposure), the “time from which animals expired” value was ≥ 30 h. Also, the “frequency of dry vomiting vs vehicle control” value with Least Shrew (CIS 20 mg/kg, immediate phase) is reported as “significantly greater frequencies”. In addition, the “mean frequency of abdominal contractions vs vehicle” value in the data set with Least Shrew (CIS 20 mg/kg, immediate phase) was “significantly greater”. The “wet vomiting, dose effect” value in the data set on Least Shrew (CIS 5-20 mg/kg, delayed phase) was “no significant dose effect”. Further, the “Fos-IR in the DVC after CIS-induced vomiting” value in the data set with Fos is recorded as “numerous Fos-IR nuclei”.
